Experiment: Viscosity by Brookfield DV-II viscometer
Format: physicochemical
Conditions: 50 wt % product, spindle 34, 10 to 40° C.; compared to Na4 GLDA; data in FIG. 1
Experimental: After addition of the KOH (45% sol) and the NaOH (50% sol) solution the products were subjected to evaporation to isolate an alkalimetal salt of glutamic acid-N,N-diacetic acid product having a concentration of 50 wt %.
The viscosity of the alkalimetal salt of glutamic acid-N,N-diacetic acid products prepared in Examples 1a-e was determined using a Brookfield DV-II viscometer with a spindle 34 at a temperature of 10 to 40° C.

| viscosity | SMILES |
| --- | --- |
| significantly lower viscosity | O=C([O-])CC[C@@H](C(=O)[O-])N(CC(=O)[O-])CC(=O)[O-].[K+].[K+].[Na+].[Na+] [Na2K2 GLDA] |
| significantly lower viscosity | O=C(O)CC[C@@H](C(=O)O)N(CC(=O)O)CC(=O)O.[K].[Na].[Na].[Na] [Na3K GLDA, monopotassium trisodium glutamic acid-N,N-diacetic acid] |

Reference: patent publication US8399705B2, “Alkali metal salt of glutamic acid N,N-diacetic acid, a process to prepare such salt, and the use thereof” (Akzo Nobel N.V., priority 2007, dated 2013)
